Data from patent publication US6841682B2, “Heterocycles useful in the treatment of benign prostatic hyperplasia” (Janseen Pharmaceutica N.V., priority 1997, dated 2005).

Tests used:
[1] = system: rat prostatic tissue; assay: norepinephrine-induced contractile response of rat prostatic tissue; format: cell-based; conditions: rat prostate strips, 32° C., pH 7.4, read-out: IC50, inhibition of contractile response in prostate tissue
Description: The contractile responses of rat prostatic tissue and rat aorta tissues were examined in the presence and absence of antagonist compounds. As an indication of the selectivity of antagonism, test compound effects on vascular smooth muscle contractility (α1b-AR and α1d-AR) were compared to the effects on prostatic smooth muscle (α1a-AR). Strips of prostatic tissue and aortic rings were obtained from Long Evans derived male rats weighing 275 grams and sacrificed by cervical dislocation. The prostate tissue was placed under 1 gram tension in a 10 ml bath containing phosphate buffered saline pH 7.4 at 32° C. and isometric tension was measured with force transducers. The aortic tissue was placed under 2 grams tension in a 10 ml bath containing phosphate buffered saline pH 7.4 at 37° C. The ability of test compound to reduce the norepinephrine-induced contractile response by 50% (IC50) was determined.

[2] = target: T1, α1b-AR (Homo sapiens, UniProt P35368); assay: radioligand ([125I]-HEAT) receptor binding assay, COS cell membranes, α1b-AR; conditions: Tables A-J; [125I]-HEAT 50 pM, COS membranes; read-out: α1b IC50
T1 construct: expressed in transfected cells; host or cells: COS cells (pcDNA3 vector, DEAE-dextran transient transfection); membrane preparation
T1 sequence (P35368 1-520): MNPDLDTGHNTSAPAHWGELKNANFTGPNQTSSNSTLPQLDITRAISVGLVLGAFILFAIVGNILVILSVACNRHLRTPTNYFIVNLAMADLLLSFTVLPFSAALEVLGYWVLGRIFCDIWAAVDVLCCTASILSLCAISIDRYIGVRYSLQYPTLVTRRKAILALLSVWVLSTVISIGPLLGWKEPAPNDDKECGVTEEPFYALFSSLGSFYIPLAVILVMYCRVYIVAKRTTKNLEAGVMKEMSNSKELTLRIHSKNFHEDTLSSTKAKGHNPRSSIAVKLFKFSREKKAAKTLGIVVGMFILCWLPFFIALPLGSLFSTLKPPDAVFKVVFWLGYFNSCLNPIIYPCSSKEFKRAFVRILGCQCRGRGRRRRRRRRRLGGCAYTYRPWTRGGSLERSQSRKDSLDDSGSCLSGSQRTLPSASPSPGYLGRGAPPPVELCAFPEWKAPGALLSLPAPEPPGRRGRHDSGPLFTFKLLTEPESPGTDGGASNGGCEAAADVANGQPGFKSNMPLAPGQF
Description: (§1) The first assay tested the ability of compounds of Formula I to bind to membrane bound receptors α1a-AR, α1b-AR and α1d-AR.
(§2) The DNA sequences of the three cloned human α1-AR subtypes have been published. […] We used published DNA sequence information to design-primers for use in RT-PCR amplification of each subtype to obtain cloned cDNAs. Human poly A+ RNA was obtained from commercially available sources and included hippocampus and prostate samples, sources which have been cited in the literature. For the primary screen a radio ligand binding assay was used which employed membrane preparations from cells expressing the individual cloned receptor cDNAs. Radiolabeled ligands with binding activity on all three subtypes (non-selective) are commercially available ([125I]-HEAT, [3H]-prazosin).
(§3) Each α1 receptor subtype was cloned from poly A+ RNA by the standard method of reverse transcription-polymerase chain reaction (RT-PCR). The following sources of polyA+ RNA were used for the cloning of the al receptor subtypes: α1a-AR, human hippocampus and prostate, α1b-AR, human hippocampus, α1d-AR, human hippocampus. The resulting cDNAs were cloned into the pcDNA3 mammalian expression vector (Invitrogen Corp., San Diego Calif.). Each DNA was sequenced for verification and to detect any possible mutations introduced during the amplification process. Any deviation in sequence from the published consensus for each receptor subtype was corrected by site-directed mutagenesis.
(§4) The three α1-AR subtypes (a, b, d) were transfected into COS cells using a standard DEAE-dextran procedure with a chloroquine shock. In this procedure, each tissue culture dish (100 mm) was inoculated with 3.5×10^6 cells and transfected with 10 μg of DNA. Approximately 72 hours post-transfection, the cells were harvested and COS membranes were prepared. Transfected COS cells from 25 plates (100 mm) were scraped and suspended in 15 mL of TE buffer (50 mM Tris-HCl, 5 mM EDTA, pH7.4). The suspension was disrupted with a homogenizer. It was then centrifuged at 1000×g for 10 minutes at 4° C. The supernatant was centrifuged at 34,500×g for 20 minutes at 4° C. The pellet was resuspended in 5 mL TNE buffer (50 mM Tris-HCl, 5 mM EDTA, 150 mM NaCl, pH7.4). The resulting membrane preparation was aliquoted and stored at −70° C. The protein concentration was determined following membrane solubilization with TritonX-100.
(§5) The ability of each compound to bind to each of the α1-AR subtypes was assessed in a receptor binding assay. [125I]-HEAT, a non-selective α1-AR ligand, was used as the radiolabeled ligand. Each well of a 96-well plate received: 140 μL TNE, 25 μL [125I]-HEAT diluted in TNE (50,000 cpm; final concentration 50 pM), 10 μL test compound diluted in DMSO (final concentration 1 pM-10 μM), […] COS cell membrane preparation expressing one of the three α1-AR subtypes (0.05-0.2 mg membrane protein). The plate was incubated for 1 hour at room temperature and the reaction mixtures were filtered through a Packard GF/C Unifilter filter plate. The filter plate was dried for 1 hour in a vacuum oven. Scintillation fluid ([…]) was added to each well, and the filter plate was counted in a Packard Topcount scintillation counter. Data was analyzed using GraphPad Prism software.
(§6) Tables A-J list the IC50 values expressed in nanomolar concentration for select compounds of the invention in all receptor subtypes.

[3] = target: T2, α1d-AR (Homo sapiens, UniProt P25100); assay: radioligand ([125I]-HEAT) receptor binding assay, COS cell membranes, α1d-AR; conditions: Tables A-J, [125I]-HEAT 50 pM
T2 construct: expressed in transfected cells; host or cells: COS cells (pcDNA3 vector, DEAE-dextran transient transfection); membrane preparation
T2 sequence (P25100 1-572): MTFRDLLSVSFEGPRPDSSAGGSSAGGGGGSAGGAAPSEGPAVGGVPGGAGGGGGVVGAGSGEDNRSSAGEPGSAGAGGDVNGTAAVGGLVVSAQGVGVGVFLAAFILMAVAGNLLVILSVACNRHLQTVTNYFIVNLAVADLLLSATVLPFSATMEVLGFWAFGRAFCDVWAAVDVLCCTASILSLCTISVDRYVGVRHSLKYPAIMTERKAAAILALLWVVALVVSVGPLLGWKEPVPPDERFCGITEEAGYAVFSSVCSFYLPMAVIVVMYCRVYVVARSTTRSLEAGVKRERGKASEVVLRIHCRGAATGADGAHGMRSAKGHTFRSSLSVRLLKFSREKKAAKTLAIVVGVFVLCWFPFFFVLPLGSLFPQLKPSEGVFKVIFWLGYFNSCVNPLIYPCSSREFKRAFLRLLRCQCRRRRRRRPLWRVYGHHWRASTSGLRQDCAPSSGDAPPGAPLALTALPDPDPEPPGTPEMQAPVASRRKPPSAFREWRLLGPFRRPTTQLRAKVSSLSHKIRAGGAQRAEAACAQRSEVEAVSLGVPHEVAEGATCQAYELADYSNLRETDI
Description: as §1, §2, §3, §4, §5, §6

## CC(C)Oc1ccccc1N1CCN(Cc2ncc(CN3CCCCC3=O)s2)CC1 [Compound 16]
[1]
  IC50: 0.38 µM
[2]
  IC50: 8.5 µM
[3]
  IC50: 0.211 µM

## CC(C)Oc1ccccc1N1CCN(Cc2cc(CN3CCCCC3=O)n[nH]2)CC1 [Compound 3]
[1]
  IC50: 1.3 µM
[2]
  IC50: 3.92 µM
[3]
  IC50: 0.177 µM
